{"source": "ChEMBL document CHEMBL3508693", "about": "(2016)", "key": {"[1]": {"target": "T1, CYP1A2 (Homo sapiens, UniProt P05177)", "T1 sequence (P05177 whole entry)": "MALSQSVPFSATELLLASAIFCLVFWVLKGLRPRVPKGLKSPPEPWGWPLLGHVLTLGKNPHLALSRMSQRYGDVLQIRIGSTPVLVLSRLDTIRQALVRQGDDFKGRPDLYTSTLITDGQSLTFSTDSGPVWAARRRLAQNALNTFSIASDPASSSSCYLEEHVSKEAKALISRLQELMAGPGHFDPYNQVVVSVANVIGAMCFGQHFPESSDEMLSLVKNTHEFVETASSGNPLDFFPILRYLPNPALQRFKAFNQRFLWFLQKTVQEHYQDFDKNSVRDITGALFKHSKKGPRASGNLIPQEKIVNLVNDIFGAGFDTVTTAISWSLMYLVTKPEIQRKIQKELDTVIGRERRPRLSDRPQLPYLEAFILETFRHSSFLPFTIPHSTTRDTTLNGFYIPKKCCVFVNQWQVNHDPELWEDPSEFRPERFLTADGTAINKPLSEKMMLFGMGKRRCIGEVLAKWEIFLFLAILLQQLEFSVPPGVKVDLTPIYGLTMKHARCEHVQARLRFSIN", "assay": "Inhibitory activity of 200 uM SPP100 on 548 Pmoles of cDNA-derived CYP1A2 enzyme in microsome prepared from human lymphoblastoid cell line", "format": "ADME, microsomes", "set-up": "conc 200 uM, interact cpd conc 50 uM", "conditions": "probe phenacetin"}, "[2]": {"target": "T1, CYP1A2", "assay": "Inhibitory activity of 20 uM SPP100 on 489 Pmoles of cDNA-derived CYP1A2 enzyme in microsome prepared from human lymphoblastoid cell line", "format": "ADME, microsomes", "set-up": "conc 20 uM, interact cpd conc 50 uM", "conditions": "probe phenacetin"}, "[3]": {"assay": "% SPP100 recovered in urine following single intravenous administration of 10 mg.Kg-1 [14C] aliskiren hemifumarate in male rat", "format": "ADME, organism-based, HAN:WIST(SPF)", "conditions": "in vivo"}, "[4]": {"assay": "Excretion (0-168h) of aliskiren in urine following intravenous administration of [14C] aliskiren hemifumarate at 1 mg.Kg-1 level in marmoset", "format": "ADME, organism-based, Callithrix jacchus", "conditions": "in vivo"}, "[5]": {"target": "CYP2C9 (Homo sapiens, UniProt P11712)", "sequence (P11712 whole entry)": "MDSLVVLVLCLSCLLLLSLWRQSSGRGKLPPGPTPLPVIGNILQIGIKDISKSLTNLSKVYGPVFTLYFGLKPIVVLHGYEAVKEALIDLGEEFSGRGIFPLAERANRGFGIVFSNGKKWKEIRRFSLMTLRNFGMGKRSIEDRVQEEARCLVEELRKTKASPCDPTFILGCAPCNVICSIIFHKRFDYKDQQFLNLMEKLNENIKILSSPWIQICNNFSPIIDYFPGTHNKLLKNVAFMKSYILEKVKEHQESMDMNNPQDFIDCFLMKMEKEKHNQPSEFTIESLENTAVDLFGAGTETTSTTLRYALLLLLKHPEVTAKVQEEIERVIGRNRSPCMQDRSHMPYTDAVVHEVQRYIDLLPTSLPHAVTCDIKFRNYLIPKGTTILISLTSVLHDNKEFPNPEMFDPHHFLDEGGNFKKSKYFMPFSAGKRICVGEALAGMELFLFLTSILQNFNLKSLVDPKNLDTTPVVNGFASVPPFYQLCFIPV", "assay": "Inhibitory activity of 200 uM SPP100 on 201 Pmoles of cDNA-derived CYP2C9 enzyme in microsome prepared from human lymphoblastoid cell line", "format": "ADME, microsomes", "set-up": "conc 200 uM, interact cpd conc 6 uM", "conditions": "probe diclofenac"}, "[6]": {"assay": "Excretion (168h) of radioactivity in urine following intravenous administration of [14C] aliskiren hemifumarate at 10 mg.Kg-1 level in rat", "format": "ADME, organism-based, Lister-Hooded", "conditions": "in vivo"}, "[7]": {"assay": "Elimination (0-96h) of radioactivity via biliary route following intravenous administration of [14C] aliskiren hemifumarate at 10 mg.Kg-1 level in rat", "format": "ADME, organism-based, Albino HAN:WIST, Bile", "conditions": "in vivo"}, "[8]": {"target": "Cytochrome P450 3A4/3A5 (Homo sapiens, UniProt P08684+P20815)", "assay": "Estimated contribution of CYP3A4/5 to oxidative metabolism of [14C] aliskiren hemifumarate based on studies with microsomes from baculovirus-infected insect cells expressing recombinant human CYP450s and studies with pooled human liver microsomes from 22 donors", "format": "ADME, Microsome"}, "[9]": {"assay": "Total excretion of radioactivity following intravenous administration of [14C] aliskiren hemifumarate at 1 mg.Kg-1 level in marmoset", "format": "ADME, organism-based, Callithrix jacchus, Urine/Feces", "conditions": "in vivo"}, "[10]": {"assay": "Concentration of radioactivity in the kidney medulla following repeated oral administration of [14C] aliskiren hemifumarate at 100 mg.Kg-1 level studied at 24h after 10th dose in rat", "format": "ADME, organism-based, Albino HAN:WIST, Renal medulla", "conditions": "in vivo"}, "[11]": {"assay": "Excretion of radioactivity (0-384h) in urine following 10 day repeated oral administration of [14C] aliskiren hemifumarate at 100 mg.Kg-1 level studied in rat", "format": "ADME, organism-based, Albino HAN:WIST", "conditions": "in vivo"}, "[12]": {"assay": "Excretion of radioactivity (0-24h) in faeces following single oral dose of 100 mg.Kg-1 [14C] aliskiren hemifumarate in rat", "format": "ADME, organism-based, Albino HAN:WIST, Feces", "conditions": "in vivo"}, "[13]": {"assay": "Excretion of radioactivity (0-96h) in urine following single intravenous dose of 10 mg.Kg-1 [14C] aliskiren hemifumarate in rat", "format": "ADME, organism-based, Albino HAN:WIST", "conditions": "in vivo"}, "[14]": {"assay": "AUC/dose (0-96h) of total radioactivity following oral administration of [14C] aliskiren hemifumarate at 100 mg.Kg-1 level in rat", "format": "ADME, organism-based, Albino HAN:WIST, Plasma", "conditions": "in vivo"}, "[15]": {"assay": "Cmax (0-168h) of total radioactivity following single intravenous administration of [14C] aliskiren hemifumarate at 1 mg.Kg-1 level in marmoset", "format": "ADME, organism-based, Callithrix jacchus, Plasma", "conditions": "in vivo"}, "[16]": {"assay": "Excretion of radioactivity (0-96h) in faeces following single intravenous dose of 10 mg.Kg-1 [14C] aliskiren hemifumarate in rat", "format": "ADME, organism-based, Albino HAN:WIST, Feces", "conditions": "in vivo"}, "[17]": {"assay": "Excretion of radioactivity (0-24h) in faeces following single intravenous dose of 10 mg.Kg-1 [14C] aliskiren hemifumarate in rat", "format": "ADME, organism-based, Albino HAN:WIST, Feces", "conditions": "in vivo"}, "[18]": {"assay": "Concentration of radioactivity in the brown fat following repeated oral administration of [14C] aliskiren hemifumarate at 100 mg.Kg-1 level studied at 2h after 10th dose in rat", "format": "ADME, organism-based, Albino HAN:WIST, Brown adipose tissue", "conditions": "in vivo"}, "[19]": {"assay": "Total excretion of radioactivity following oral administration of [14C] aliskiren hemifumarate at 3 mg.Kg-1 level in marmoset", "format": "ADME, organism-based, Callithrix jacchus, Urine/Feces", "conditions": "in vivo"}, "[20]": {"target": "Cytochrome P450 2D6 (Homo sapiens, UniProt P10635)", "sequence (P10635 whole entry)": "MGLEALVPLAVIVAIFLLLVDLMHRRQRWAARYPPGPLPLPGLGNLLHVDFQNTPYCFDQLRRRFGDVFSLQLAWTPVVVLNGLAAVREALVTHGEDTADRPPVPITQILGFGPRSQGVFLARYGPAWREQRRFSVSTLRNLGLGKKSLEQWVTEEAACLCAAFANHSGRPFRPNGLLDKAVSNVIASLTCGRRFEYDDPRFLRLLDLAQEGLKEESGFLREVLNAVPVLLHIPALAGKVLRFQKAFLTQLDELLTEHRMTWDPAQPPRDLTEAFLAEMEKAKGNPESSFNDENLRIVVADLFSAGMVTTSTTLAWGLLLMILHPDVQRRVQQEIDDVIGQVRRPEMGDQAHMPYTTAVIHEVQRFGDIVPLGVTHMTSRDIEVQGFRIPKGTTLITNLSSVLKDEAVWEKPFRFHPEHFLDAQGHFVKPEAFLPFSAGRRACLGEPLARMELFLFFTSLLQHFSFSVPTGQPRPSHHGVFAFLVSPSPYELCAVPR", "assay": "Involvement of CYP2D6 in the metabolism of [14C] aliskiren hemifumarate based on studies with microsomes from baculovirus-infected insect cells expressing recombinant human CYP450s and studies with pooled human liver microsomes from 22 donors", "format": "ADME, Microsome"}, "[21]": {"assay": "Tmax of aliskiren hemifumarate following 4 week oral dietary dosing of aliskiren hemifumarate at 1000 mg.Kg-1 level in female mouse", "format": "ADME, organism-based", "conditions": "CB6F1-TGrasH2, mouse, in vivo"}, "[22]": {"assay": "Tmax of aliskiren hemifumarate following 4 week oral dietary dosing of aliskiren hemifumarate at 1500 mg.Kg-1 level in female mouse", "format": "ADME, organism-based", "conditions": "CB6F1-TGrasH2, mouse, in vivo"}, "[23]": {"assay": "Effect of 2 week oral dosing of aliskiren hemifumarate at 50 mg.Kg-1 level on blood urea nitrogen level in male Callithrix jacchus", "format": "toxicity, organism-based, Plasma", "conditions": "marmoset, 336 h"}, "[24]": {"assay": "AUCspec of aliskiren hemifumarate following 2 week oral dosing of aliskiren hemifumarate at 100 mg.Kg-1 level studied on day 14 in female Callithrix jacchus", "format": "ADME, organism-based, Plasma", "conditions": "marmoset, in vivo, 336 h"}, "[25]": {"assay": "Tmax of aliskiren hemifumarate following 2 week oral dosing of aliskiren hemifumarate at 50 mg.Kg-1 level studied on day 14 in male Callithrix jacchus", "format": "ADME, organism-based", "conditions": "marmoset, plasma"}, "[26]": {"assay": "AUC(0-24h) of aliskiren hemifumarate following 2 week oral dosing of aliskiren hemifumarate at 50 mg.Kg-1 level studied on day 14 in female Callithrix jacchus", "format": "ADME, organism-based", "conditions": "marmoset, plasma"}, "[27]": {"assay": "Cmax normalised (0-168h) of unlabeled aliskiren hemifumarate following single intravenous administration of aliskiren hemifumarate at 1 mg.Kg-1 level in marmoset", "format": "ADME, organism-based, Callithrix jacchus, Plasma", "conditions": "in vivo"}, "[28]": {"assay": "Tmax of aliskiren hemifumarate following 2 week oral dosing of aliskiren hemifumarate at 50 mg.Kg-1 level studied on day 1 in male Callithrix jacchus", "format": "ADME, organism-based", "conditions": "marmoset, plasma"}, "[29]": {"assay": "Tmax of aliskiren hemifumarate following repeated oral administration of [14C] aliskiren hemifumarate at 100 mg.Kg-1 level studied after 2h of dosing on day 10 in rat", "format": "ADME, organism-based, Albino HAN:WIST", "conditions": "in vivo"}, "[30]": {"assay": "Cmax of aliskiren hemifumarate following 4 week oral dietary dosing of aliskiren hemifumarate at 500 mg.Kg-1 level in female mouse", "format": "ADME, organism-based", "conditions": "CB6F1-TGrasH2, mouse, in vivo"}, "[31]": {"assay": "AUCspec of aliskiren hemifumarate following 2 week oral dosing of aliskiren hemifumarate at 50 mg.Kg-1 level studied on day 14 in male Callithrix jacchus", "format": "ADME, organism-based, Plasma", "conditions": "marmoset, in vivo, 336 h"}, "[32]": {"assay": "Tmax (0-168h) of unlabeled aliskiren hemifumarate following single oral administration of aliskiren hemifumarate at 3 mg.Kg-1 level in marmoset", "format": "ADME, organism-based, Callithrix jacchus", "conditions": "plasma"}}}
{"smiles": "COCCCOc1cc(C[C@@H](C[C@H](N)[C@@H](O)C[C@H](C(=O)NCC(C)(C)C(N)=O)C(C)C)C(C)C)ccc1OC", "values": [{"measurement": "inhibition at 200 µM", "setting": "[1]", "result": -6.4, "unit": "%"}, {"measurement": "inhibition at 20 µM", "setting": "[2]", "result": 5, "unit": "%"}, {"measurement": "Compound recovery", "setting": "[3]", "result": 79.8, "unit": "%"}, {"measurement": "Compound recovery", "setting": "[4]", "result": 3, "unit": "%"}, {"measurement": "inhibition at 200 µM", "setting": "[5]", "result": 23, "unit": "%"}]}
{"smiles": "COCCCOc1cc(C[C@@H](C[C@H](N)[C@@H](O)C[C@H](C(=O)NCC([14CH3])([14CH3])C(N)=O)C(C)C)C(C)C)ccc1OC.O=C(O)/C=C/C(=O)O", "values": [{"measurement": "Radiolabel recovery", "setting": "[6]", "result": 10.4, "unit": "%"}, {"measurement": "Radiolabel recovery", "setting": "[7]", "result": "OUTCOME = Observed/Elimination of radioactivity was mainly via biliary route"}, {"measurement": "Activity", "setting": "[8]", "result": 99.6, "unit": "%"}, {"measurement": "Radiolabel recovery", "setting": "[9]", "result": 83.1, "unit": "%"}, {"measurement": "Radiolabel recovery", "setting": "[10]", "result": "OUTCOME = Detected"}, {"measurement": "Radiolabel recovery", "setting": "[11]", "result": 0.3, "unit": "%"}, {"measurement": "Radiolabel recovery", "setting": "[12]", "result": 2.96, "unit": "%"}, {"measurement": "Radiolabel recovery", "setting": "[13]", "result": 94.4, "unit": "%"}, {"measurement": "AUC normalised", "setting": "[14]", "result": "0.054 (umol.h/L)/(mg/kg)"}, {"measurement": "AUC normalised", "setting": "[14]; iv, 10 mg/kg", "result": "0.81 (umol.h/L)/(mg/kg)"}, {"measurement": "Cmax", "setting": "[15]", "result": 11.4, "unit": "µM"}, {"measurement": "Radiolabel recovery", "setting": "[16]", "result": 90, "unit": "%"}, {"measurement": "Radiolabel recovery", "setting": "[17]", "result": 55.7, "unit": "%"}, {"measurement": "Radiolabel recovery", "setting": "[18]", "result": "OUTCOME = Detected"}, {"measurement": "Radiolabel recovery", "setting": "[19]", "result": 104, "unit": "%"}, {"measurement": "Activity", "setting": "[20]", "result": "OUTCOME = Observed, VALUE = CYP2D6 contributed to a minor extent on metabolism of aliskiren"}]}
{"smiles": "COCCCOc1cc(C[C@@H](C[C@H](N)[C@@H](O)C[C@H](C(=O)NCC(C)(C)C(N)=O)C(C)C)C(C)C)ccc1OC.COCCCOc1cc(C[C@@H](C[C@H](N)[C@@H](O)C[C@H](C(=O)NCC(C)(C)C(N)=O)C(C)C)C(C)C)ccc1OC.O=C(O)/C=C/C(=O)O", "note": "[ALISKIREN FUMARATE]", "values": [{"measurement": "Tmax", "setting": "[21]", "result": 3, "unit": "h"}, {"measurement": "Tmax", "setting": "[22]", "result": 30, "unit": "min"}, {"measurement": "BUN_CHANGE_BY", "setting": "[23]", "result": 105, "unit": "%"}, {"measurement": "AUC normalised", "setting": "[24]", "result": "1.42 ((ug.h.ml-1)/(mg/kg)"}, {"measurement": "Tmax", "setting": "[25]", "result": 2, "unit": "h"}, {"measurement": "AUC at 24 h", "setting": "[26]", "result": 109, "unit": "µg·h/mL"}, {"measurement": "Cmax normalised", "setting": "[27]", "result": "14.24 (umol/L)/(mg/kg)"}, {"measurement": "Tmax", "setting": "[28]", "result": 1, "unit": "h"}, {"measurement": "Tmax(10)", "setting": "[29]", "result": 218, "unit": "h"}, {"measurement": "Cmax", "setting": "[30]", "result": 63.8, "unit": "ng/mL"}, {"measurement": "AUC normalised", "setting": "[31]", "result": "2.14 ((ug.h.ml-1)/(mg/kg)"}, {"measurement": "Tmax", "setting": "[32]", "result": 2, "unit": "h"}]}
